4 compounds from patent publication EP4692079A1, “CYP11A1 INHIBITOR AND USE THEREOF” (priority 2023, dated 2024) can be followed below.

Read-outs that look alike come from different tables or passages of the source.

Series [1] can be described thus: Pharmacokinetic test in mice. The class given is in vivo. As to conditions: mouse, male ICR mice, plasma; for Vd: read-out: Vdss. As for the experimental part:
4.1. Experimental animals: Male ICR mice, 20-25 g, 6 mice/compound, were purchased from Chengdu Dossy Experimental Animals Co., Ltd.
4.2 Experimental design: on the day of the experiment, the ICR mice were randomly grouped according to their body weights. […] Table 6 Administration information
Before and after administration, 0.06 mL of blood was taken from the orbit under isoflurane anaesthesia and placed in an EDTAK2 centrifuge tube. The tube was centrifuged at 5000 rpm at 4°C for 10 min, and plasma was collected. […] Before analysis and detection, all samples were stored at -80°C, and the samples were quantitatively analysed by LC-MS/MS.

Series [2] relates to testosterone level in NCI-H295R cells. The series is described as follows: cells. As to conditions: Homo sapiens, NCI-H295R, 72 h; for IC50: read-out: Testosterone level in H295R (Elisa) IC50 nM. The class given is cell-based.
Series [3] can be described thus: Pharmacokinetic test in rats. As to conditions: rat, male SD rats, plasma; for Vd: read-out: Vdss. The series is classed as in vivo. The procedure: 3.1 Experimental animals: Male SD rats (about 220 g, 6-8 weeks old, 6 rats/compound) were purchased from Chengdu Dossy Experimental Animals Co., Ltd.
3.2 Experimental design: On the day of the experiment, the SD rats were randomly grouped by body weight. […] Table 4 Administration information
Before and after the administration, 0.1 ml of blood was taken from the orbit of the animals under isoflurane anaesthesia and placed in an EDTAK2 centrifuge tube. The blood was centrifuged at 5000 rpm and 4°C for 10 min to collect plasma. […] Before analysis and detection, all samples were stored at -80°C. Table 5 Pharmacokinetic parameters of test compounds in plasma of rats

Series [4] deals with pregnenolone level in NCI-H295R cells. The series is described as follows: cells. As to conditions: Homo sapiens, 72 h; for IC50: read-out: Pregnenolone level in H295R (Elisa) IC50 nM. The series is classed as cell-based. As for the experimental part:
2. The purpose of the experimental study was intended to detect the pregnenolone level in the NCI-H295R cells by adopting the Enzyme linked immunosorbent assay (ELISA), so as to evaluate the inhibitory effects of the compounds on the pregnenolone level in the NCI-H295R cells.
The H295R cells were purchased from ATCC (CRL-2128), the cell complete medium contained DMEM: F12+ 10% FBS +0.00625 mg/ml insulin+0.00625 mg/mL transferrin+6.25 ng/mL selenium+1.25 mg/mL BSA+0.00535 mg/mL linoleic acid, and the cells were cultured in a 37°C, 5% CO2 incubator. The cells in the exponential growth phase were collected, and cultured in a cytokine-free medium (phenol red 1640-free +1% PS+10% css FBS+1.25 mg/mL BSA +0.00625 mg/mL insulin+0.00625 mg/mL transferrin+6.25 ng/mL selenium+0.00535 mg/mL linoleic acid) for three days. The cells in the exponential growth phase were collected on the third day. The cell suspension was adjusted with a cytokine-free medium to a corresponding concentration and plated at 60000 cells/well, with the volume being 90 µL/well. Subsequently, 10 µL of the compounds at different concentrations was added and the plate was incubated in a CO2 incubator for three days. After the incubation was completed, the cell culture supernatant was collected and centrifuged at 2°C-8°C at 800×g for 10 min. The resulting supernatant was collected. Determination was carried out according to the operation instructions for pregnenolone Elisa kit (Antibodies-A73791), and the OD450 signal was read.
2.1 Standard curve plotting. The standard concentration was taken as the abscissa and the OD450 value as the ordinate, the coordinate points of various standards were connected with a smooth line and a curve was fitted according to the four parameter logistic (4-PL) method.
2.2 Sample quantification: The corresponding concentration (CONC) of testosterone/pregnenolone in the sample was calculated using the absorbance value of the sample and the standard curve. According to formula (1), the inhibition rate of the compound at various concentrations was calculated, and S-shaped concentration curves were plotted and the IC50 values (i.e., concentration of the compound at which the inhibition rate was 50%) were calculated using a three parameter non-linear regression model in Graphpad Prim 8.0 software. CONC cpd was the concentration of the treated group, and CONC ctrl was the average concentration value of the solvent control group. Inhibition rate% = 100%−CONCcpd /CONCctrl × 100% [formula] Table 3 Inhibitory effects of compounds on pregnenolone level in NCI-H295R cells

Where [5] appears, read: po, intragastric administration (10 mg/kg).
Setting [6] is: intravenous administration (2.5 mg/kg).
Where [7] appears, read: read-out: Testosterone level in H295R (Elisa) inh.% 100 nM.
Where [8] appears, read: read-out: Testosterone level in H295R (Elisa) inh.% 1000 nM.

With `O=C(N[C@H]1CC[C@H](/C=C/c2coc(CN3Cc4ccc(C(F)(F)F)cc4C3)cc2=O)CC1)C1CC1` [Compound 61], the AUC(0-t) in series [1] (setting [5]) amounted to 32100 ng·h/mL; in series [1] (setting [6]) it was 6080 ng·h/mL; in series [3] (setting [5]), 17400 ng·h/mL; in series [3] (setting [6]), 5590 ng·h/mL. The half-life is 3.47 h in series [1] (setting [5]), 3.73 h in series [1] (setting [6]), 3.03 h in series [3] (setting [5]) and 2.58 h in series [3] (setting [6]). In addition, the clearance worked out at 6.8 mL/min/kg in series [1] (setting [6]) and 7.49 mL/min/kg in series [3] (setting [6]). Besides, the values for the Vd in series [1] (setting [6]) and in series [3] (setting [6]) were 1.75 L/kg and 1.42 L/kg, respectively. Further, the figures for the IC50 in series [2] and in series [4] were 162 nM and 370 nM, respectively. The inhibition at 0.1 µM in series [2] (setting [7]) came to 71%. Also, the inhibition at 1 µM in series [2] (setting [8]) came to 79%.

`[2H]C([2H])([2H])n1cc(C(=O)N[C@H]2CC[C@H](CCc3coc(CN4Cc5ccc(C(F)(F)F)cc5C4)cc3=O)CC2)cn1` [Compound 118]: the area under the curve AUC(0-t) in series [1] (setting [5]) amounted to 28000 ng·h/mL; in series [1] (setting [6]) it was 7980 ng·h/mL; in series [3] (setting [5]) it was 11400 ng·h/mL; in series [3] (setting [6]), 5200 ng·h/mL. In addition, the half-life is 3.45 h in series [1] (setting [5]), 2.78 h in series [1] (setting [6]), 4.41 h in series [3] (setting [5]) and 1.58 h in series [3] (setting [6]). Moreover, the results for the clearance in series [1] (setting [6]) and in series [3] (setting [6]) were 5.22 mL/min/kg and 8.18 mL/min/kg, respectively. Besides, the Vd stood at 0.966 L/kg in series [1] (setting [6]) and 0.755 L/kg in series [3] (setting [6]). The half-maximal inhibitory concentration (IC50) is 36 nM in series [2] and 71 nM in series [4]. The inhibition at 0.1 µM in series [2] (setting [7]) amounted to 70%. In series [2] (setting [8]), the inhibition at 1 µM came to 83%.

Consider `[2H]C([2H])([2H])n1cc(C(=O)N[C@H]2CC[C@H](/C=C/c3coc(CN4Cc5ccc(C(F)(F)F)cc5C4)cc3=O)CC2)cn1` [Compound 81], for which the AUC(0-t) stood at 68500 ng·h/mL in series [1] (setting [5]), 22600 ng·h/mL in series [1] (setting [6]), 40500 ng·h/mL in series [3] (setting [5]) and 12900 ng·h/mL in series [3] (setting [6]). Moreover, the half-life is 5.38 h in series [1] (setting [5]), 6.99 h in series [1] (setting [6]), 4.29 h in series [3] (setting [5]) and 3.18 h in series [3] (setting [6]). The clearance in series [1] (setting [6]) was found to be 1.69 mL/min/kg; in series [3] (setting [6]) it was 3.22 mL/min/kg. Moreover, the Vd in series [1] (setting [6]) was found to be 0.86 L/kg; in series [3] (setting [6]), 0.704 L/kg. Besides, the IC50 amounted to 102 nM in series [2] and 146 nM in series [4]. The inhibition at 0.1 µM in series [2] (setting [7]) was determined as 63%. Moreover, the inhibition at 1 µM in series [2] (setting [8]) was 83%.

`CS(=O)(=O)N1CC(OC(=O)N2CCC(COc3coc(CN4Cc5ccc(C(F)(F)F)cc5C4)cc3=O)CC2)C1` [Compound 17]: the area under the curve AUC(0-t) in series [1] (setting [5]) came to 17800 ng·h/mL; in series [1] (setting [6]) it was 4790 ng·h/mL; in series [3] (setting [5]), 5240 ng·h/mL; in series [3] (setting [6]), 1680 ng·h/mL. The half-life in series [1] (setting [5]) was 2.42 h; in series [1] (setting [6]) it was 2.96 h; in series [3] (setting [5]) it was 2.72 h; in series [3] (setting [6]), 1.59 h. Also, the clearance in series [1] (setting [6]) was 8.73 mL/min/kg; in series [3] (setting [6]) it was 24.4 mL/min/kg. The Vd in series [1] (setting [6]) amounted to 1.81 L/kg; in series [3] (setting [6]), 2.53 L/kg. In addition, the inhibition at 0.1 µM in series [2] (read-out: Testosterone level in H295R (Elisa) inh.% 100 nM, 100 nM compound, NCI-H295R cells, three days incubation) came to 91.6%; in series [4] (read-out: Pregnenolone level in H295R (Elisa) inh.% 100 nM), 64.9%. Moreover, the inhibition at 1 µM in series [2] (read-out: Testosterone level in H295R (Elisa) inh.% 1000 nM, 1000 nM compound, NCI-H295R cells, three days incubation) was 93.6%; in series [4] (read-out: Pregnenolone level in H295R (Elisa) inh.% 1000 nM), 75.2%. Further, the IC50 in series [4] turned out to be 773 nM.
